From publication PMC3939009, “Thrombin inhibitory activity of some polyphenolic compounds” (Medicinal Chemistry Research, 2013)
Where two headings read alike, the source gives them in different places.

How the values were obtained:
[1] = molecular target: T1, human thrombin (Homo sapiens, UniProt P00734); test: Amidolytic activity of thrombin (hydrolysis of chromogenic substrate D-Phe-Pip-Arg-pNA); type: biochemical; parameters: Thrombin, also known as an active plasma coagulation factor II; purchased Sigma-Aldrich Chemical Co. (St. Louis, MO, USA) T7009; host or cells: purified from human plasma
Description: (§1) All tested compounds were dissolved in 50 % DMSO to the initial concentration of 10 mM; other solutions of compounds were also prepared in 50 % DMSO (prepared in 50 mM TBS, pH 7.4). The final concentration of DMSO in thrombin samples was 5 %. To prepare thrombin control samples, the same volume of solvent (50 % DMSO prepared in 50 mM TBS, pH 7.4) was added as in the case of the compound volume and warmed for 10 min to 37 °C.
To each reaction well, 40 μl of 3 mM chromogenic substrate was added. To initiate the chromogenic reaction, 280 μl of control thrombin (without tested compounds) or thrombin after preincubation with a polyphenolic compound to every reaction well in the same moment was added. The absorbance value was monitored every 12 s for 10 min. The maximal velocity of the reaction (V max, Δm OD/min) for each absorbance curve was determined. IC50 value (parameter) for every polyphenolic compound from inhibition curves was estimated.

[2] = molecular target: T1, human thrombin; test: BIAcore (SPR) analysis of binding to immobilized thrombin; parameters: Thrombin, also known as an active plasma coagulation factor II; purchased Sigma-Aldrich Chemical Co. (St. Louis, MO, USA) T7009; conditions: for Response (RU): analyte 1,000 μM, thrombin immobilized on CM5 chip
Description: The biosensor assays were performed using the BIAcore 1000 biosensor system. All biosensor analyses were performed with a phosphate-buffered saline (PBS), pH 7.4, as a running buffer. […] The immobilization of thrombin on a biosensor carboxylmethyl dextran surface was performed according to the BIA applications Handbook (BIAcore, [1994]). The process of protein immobilization was performed on a sensor chip CM5 surface by the positively charged functional groups of protein amino acids. The immobilization process consisted of four steps: preconcentration, activation, ligand immobilization and deactivation of the residual NHS esters. […] The temperature during the whole experiment was also constant and was set to 25.0 °C. […] Each of these solutions (10 μl) was injected into an empty sensor chip channel. […] The amount of injected activation mixture was modified, to regulate the amount of immobilized ligand. […] The conditions of the latter experiments were established by numerous pre-tests. The assessed parameters included: the buffer flow rate, the volume of analyte injection, the concentration of analytes, types and concentration of regenerators. […] For each injection of analyte solution, the volume used was 100 μl. After injection of analyte was completed, the dissociation step occurred and the level of the interaction ligand-analyte was measured. During dissociation, the particles non-covalently bound to the ligand were washed out from the working channel. […] To do these calculations, the formulas presented below were used: the association rate […]]; the dissociation rate -d[AB]/dt=kd·[AB]; the equilibrium constants: KA=[AB]/[A]·[B]=ka/kd KD=[A]·[B]/[AB]=kd/ka.

[3] = molecular target: T1, human thrombin; test: Thrombin-induced fibrinogen polymerization; type: biochemical; parameters: Thrombin, also known as an active plasma coagulation factor II; purchased Sigma-Aldrich Chemical Co. (St. Louis, MO, USA) T7009; conditions: thrombin preincubated with compound; for Effect on thrombin ability to induce fibrinogen polymerization: 10 min 37 °C; for Concentration causing total inhibition of thrombin activity (fibrin polymerization): Vmax of fibrinogen polymerization at 595 nm
Description: In these preparations, to nine volumes of thrombin one volume of polyphenolic compounds was added (final thrombin concentration was 15.8 nM). All tested compounds were dissolved in 50 % DMSO to the initial concentration of 10 mM; other solutions of compounds were also prepared in 50 % DMSO (prepared in 50 mM TBS, pH 7.4). […] Polymerization of fibrin was monitored at 595 nm using a 96-well microtiter plate reader. To each reaction well of the microtiter plate, 100 μl of fibrinogen (3 mg/ml) in 50 mM TBS and 5 mM CaCl2, pH 7.4, were added. […] The maximal velocity of the polymerization process (V max, Δm OD/min) for each absorbance curve was determined (Nowak et al., [2007]).

[4] = molecular target: T1, human thrombin; test: SDS-PAGE analysis of thrombin-induced cross-linked fibrin formation; type: biochemical; parameters: Thrombin, also known as an active plasma coagulation factor II; purchased Sigma-Aldrich Chemical Co. (St. Louis, MO, USA) T7009; host or cells: purified from human plasma
Description: as §1, with “In these preparations, to nine volumes of thrombin one volume of polyphenolic compounds was added (final thrombin concentration was 15.8 nM). All” for “All”
The reactions incubated at 37 °C were stopped after 5, 15 and 30 min by adding 150 μl of lysis buffer (0.125 M Tris/HCl, 4 % SDS, 8 M urea, 10 % β-mercaptoethanol, pH 6.8). Samples were subjected to SDS-PAGE (polyacrylamide concentration—7.5 %) using Mini-Protean Electrophoresis Cell (Bio-Rad, Hercules, CA). Proteins were stained with Coomassie Brilliant Blue R250 (CBB).

[5] = molecular target: T1, human thrombin; test: Analysis of thrombin inhibition parameters (Lineweaver–Burk curves); type: biochemical; parameters: Thrombin, also known as an active plasma coagulation factor II; purchased Sigma-Aldrich Chemical Co. (St. Louis, MO, USA) T7009; conditions: for k cat: compound at IC50 concentration, k cat = V max/E 0, control 29.1; for Type of inhibition: from Lineweaver–Burk curves; for V max of chromogenic substrate hydrolysis by thrombin / K m of chromogenic substrate hydrolysis by thrombin: thrombin incubated with compound at IC50 concentration; for V max of chromogenic substrate hydrolysis by thrombin: control 30.7; for K m of chromogenic substrate hydrolysis by thrombin: control 158.7
Description: Absorbance was monitored every 12 s for 10 min in a 96-well microplate reader. The velocity of reaction was expressed as the increase in product (pNA) over time (∆ μmol/min) using a computer program Mikcroplate Manager® 8 and the extinction coefficient of p-nitroaniline. […] Then, the Lineweaver–Burk ([1934]) curves for thrombin in the presence and in the absence of polyphenol compounds were plotted. The Lineweaver–Burk equation, which is a transformation of the Michaelis–Menten model, looks as follows: 1/V=Km/Vmax·1/[S]+1/Vmax

[6] = test system: human thrombin; test: Thrombin-induced platelet aggregation (turbidimetric); type: cell-based
Description: Blood samples in 0.32 % sodium citrate from healthy volunteers without cardiovascular disorders were collected, untreated with antiplatelet drugs. […] Platelets were isolated from PRP using BSA–Sepharose 2B gel filtration method according to Walkowiak et al. ([2000]). […] In these preparations, to nine volumes of thrombin one volume of polyphenolic compounds was added (final thrombin concentration was 15.8 nM). All tested compounds were dissolved in 50 % DMSO to the initial concentration of 10 mM; other solutions of compounds were also prepared in 50 % DMSO (prepared in 50 mM TBS, pH 7.4). […] The platelet aggregation was measured by turbidimetric method (Saluk-Juszczak et al., [2007]) using dual-channel Chrono-log optical aggregometer (Chronolog, USA). […] Platelet suspensions were pre-warmed at 37 °C with stirring.

[7] = at 375 μM substrate concentration, compounds 0.1–1,000 μM, preincubation 10 min 37 °C, read-out: IC50, amidolytic activity of human thrombin
[8] = ten times IC50: cyanidin […], quercetin 15 μM, silybin 250 μM

Compound `O=c1c(-c2ccc(O)cc2)coc2cc(O)cc(O)c12` [Genistein, genistein] has an IC50 [1] greater than 1000 µM.
`O=C(O)/C=C/c1ccc(O)cc1` [Coumaric acid, coumaric acid] gave an IC50 [1, 7] greater than 1000 µM.
With `COc1cc(C2Oc3cc([C@H]4Oc5cc(O)cc(O)c5C(=O)[C@@H]4O)ccc3OC2CO)ccc1O` (stereo in doubt) [Silybin, silybin] the “K A, equilibrium association constant” value ([2]; 5 sensorgrams, 50 to 1,000 μM) was 53900 M⁻¹, the Kd ([2]; 5 sensorgrams, 50 to 1,000 μM, read-out: K D, equilibrium dissociation constant) was 18.6 µM and the kon ([2]; 5 sensorgrams, 50 to 1,000 μM, read-out: k a, association rate) was 7.11 M⁻¹ s⁻¹. The koff ([2]; 5 sensorgrams, 50 to 1,000 μM, read-out: k d, dissociation rate) was 0.000132 s⁻¹, the “Response (RU)” value [2] was 1,424 RU and the “Effect on thrombin ability to induce fibrinogen polymerization” value [3] was “inhibition of thrombin ability to induce fibrinogen polymerization”. For the same compound, the “Concentration causing total inhibition of thrombin activity (fibrin polymerization)” value [3] was > 1,000 μM, the “Effect on formation of γ–γ chains and α-polymers” value (“Effect on formation” for short) [4, 8] was “slightly reduced the formation of γ–γ chains and α-polymers” and the IC50 [1, 7] was 25 µM. For the same compound, the k cat [5] was 25.6 s⁻¹, the Type of inhibition [5] was “competitive inhibitors” and the “V max of chromogenic substrate hydrolysis by thrombin” value [5] was 27 10^−6 mol/min. For the same compound, the “K m of chromogenic substrate hydrolysis by thrombin” value [5] was 550.5 10^−6 M and the “Platelet aggregation, % of control” value ([6]; compound 1,000 μM preincubated with thrombin) was 43%.
With `Oc1ccc(/C=C/c2cc(O)cc(O)c2)cc1` [Resveratrol, resveratrol] the IC50 [1, 7] was greater than 1000 µM.
`O=C(O)/C=C/c1ccc(O)c(O)c1` [Caffeic acid, caffeic acid] showed an IC50 [1, 7] greater than 1000 µM.
`COc1ccc([C@@H]2CC(=O)c3c(O)cc(O)cc3O2)cc1O` [Hesperetin, hesperetin] was tested, and the IC50 [1, 7] was greater than 1000 µM.
With `O=C1C[C@@H](c2ccc(O)cc2)Oc2cc(O)cc(O)c21` [Naringenin, naringenin] the IC50 [1, 7] was greater than 1000 µM.
Work on `O=C(O)Cc1ccc(O)cc1` [4-Hydroxyphenylacetic acid, 4-hydroxyphenylacetic acid] yielded an IC50 [1, 7] greater than 1000 µM.
`O=C(O)c1cc(O)c(O)c(O)c1` [Gallic acid, gallic acid] gave an IC50 [1] greater than 1000 µM.
`O=C(/C=C/c1ccc(O)c(O)c1)O[C@@H]1C[C@](O)(C(=O)O)C[C@@H](O)[C@H]1O` [Chlorogenic acid, chlorogenic acid] was tested, and the IC50 [1, 7] was greater than 1000 µM.
`C[C@@H]1O[C@@H](OC[C@H]2O[C@@H](Oc3c(-c4ccc(O)c(O)c4)oc4cc(O)cc(O)c4c3=O)[C@H](O)[C@@H](O)[C@@H]2O)[C@H](O)[C@H](O)[C@H]1O` [Rutin, rutin] showed an IC50 [1, 7] greater than 1000 µM.
`COc1ccc([C@@H]2CC(=O)c3c(O)cc(O[C@@H]4O[C@H](CO[C@@H]5O[C@@H](C)[C@H](O)[C@@H](O)[C@H]5O)[C@@H](O)[C@H](O)[C@H]4O)cc3O2)cc1O` [Hesperidin, hesperidin] showed an IC50 [1, 7] greater than 1000 µM.
`COc1cc(/C=C/C(=O)O)ccc1O` [Ferulic acid, ferulic acid] was tested, and the IC50 [1, 7] was greater than 1000 µM.
In the case of `Oc1cc(O)c2cc(O)c(-c3ccc(O)c(O)c3)[o+]c2c1` [Cyanidin, cyanidin], the “Response (RU)” value [2] is reported as 2,251 RU, the “Effect on thrombin ability to induce fibrinogen polymerization” value [3] is reported as “inhibition of thrombin ability to induce fibrinogen polymerization” and the “Concentration causing total inhibition of thrombin activity (fibrin polymerization)” value [3] is reported as 5 µM. For the same compound, the “Effect on formation” value ([4]; at IC50 concentration of amidolytic inhibition: cyanidin […], quercetin 1.5 μM) was “also inhibited the formation of γ–γ chains and α-polymers”, the “Effect on formation” value [4, 8] was “significantly inhibited the formation of γ–γ chains and α-polymers” and the k cat [5] was 28.7 s⁻¹. The Type of inhibition [5] was “competitive inhibitors”, the “V max of chromogenic substrate hydrolysis by thrombin” value [5] was 30.3 10^−6 mol/min and the “K m of chromogenic substrate hydrolysis by thrombin” value [5] was 600.6 10^−6 M. The “Platelet aggregation, % of control” value ([6]; compound 5 μM preincubated with thrombin) was 10%.
In the case of `Oc1cc(O)c2c(c1)O[C@H](c1ccc(O)c(O)c1)[C@H](O)[C@H]2c1c(O)cc(O)c2c1O[C@H](c1ccc(O)c(O)c1)[C@H](O)C2` [Procyanidin B2, procyanidin B2], the IC50 [1, 7] is reported as greater than 1000 µM.
For `C[C@@H]1O[C@@H](O[C@H]2[C@H](Oc3cc(O)c4c(c3)O[C@H](c3ccc(O)cc3)CC4=O)O[C@H](CO)[C@@H](O)[C@@H]2O)[C@H](O)[C@H](O)[C@H]1O` [Naringin, naringin], the IC50 [1, 7] was greater than 1000 µM.
